Source: patent US20120142723A1, “ACE2 ACTIVATOR COMPOUNDS AND METHODS OF USE THEREOF” (University of Florida Research Foundation, Inc., priority 2006, published 2012)
Entries after “also recorded” stand apart in the source; their conditions may differ. Like-named read-outs stand apart in the source and are kept apart here.

Assays:
Human recombinant ACE = molecular target: T1, Human recombinant ACE (Homo sapiens, UniProt P12821); assay: ACE activity assay with fluorogenic peptide V; type: biochemical
T1 construct: purchased R&D Systems, Minneapolis, Minn; 929-ZN-10
T1 sequence (P12821 30-1261 limits assumed): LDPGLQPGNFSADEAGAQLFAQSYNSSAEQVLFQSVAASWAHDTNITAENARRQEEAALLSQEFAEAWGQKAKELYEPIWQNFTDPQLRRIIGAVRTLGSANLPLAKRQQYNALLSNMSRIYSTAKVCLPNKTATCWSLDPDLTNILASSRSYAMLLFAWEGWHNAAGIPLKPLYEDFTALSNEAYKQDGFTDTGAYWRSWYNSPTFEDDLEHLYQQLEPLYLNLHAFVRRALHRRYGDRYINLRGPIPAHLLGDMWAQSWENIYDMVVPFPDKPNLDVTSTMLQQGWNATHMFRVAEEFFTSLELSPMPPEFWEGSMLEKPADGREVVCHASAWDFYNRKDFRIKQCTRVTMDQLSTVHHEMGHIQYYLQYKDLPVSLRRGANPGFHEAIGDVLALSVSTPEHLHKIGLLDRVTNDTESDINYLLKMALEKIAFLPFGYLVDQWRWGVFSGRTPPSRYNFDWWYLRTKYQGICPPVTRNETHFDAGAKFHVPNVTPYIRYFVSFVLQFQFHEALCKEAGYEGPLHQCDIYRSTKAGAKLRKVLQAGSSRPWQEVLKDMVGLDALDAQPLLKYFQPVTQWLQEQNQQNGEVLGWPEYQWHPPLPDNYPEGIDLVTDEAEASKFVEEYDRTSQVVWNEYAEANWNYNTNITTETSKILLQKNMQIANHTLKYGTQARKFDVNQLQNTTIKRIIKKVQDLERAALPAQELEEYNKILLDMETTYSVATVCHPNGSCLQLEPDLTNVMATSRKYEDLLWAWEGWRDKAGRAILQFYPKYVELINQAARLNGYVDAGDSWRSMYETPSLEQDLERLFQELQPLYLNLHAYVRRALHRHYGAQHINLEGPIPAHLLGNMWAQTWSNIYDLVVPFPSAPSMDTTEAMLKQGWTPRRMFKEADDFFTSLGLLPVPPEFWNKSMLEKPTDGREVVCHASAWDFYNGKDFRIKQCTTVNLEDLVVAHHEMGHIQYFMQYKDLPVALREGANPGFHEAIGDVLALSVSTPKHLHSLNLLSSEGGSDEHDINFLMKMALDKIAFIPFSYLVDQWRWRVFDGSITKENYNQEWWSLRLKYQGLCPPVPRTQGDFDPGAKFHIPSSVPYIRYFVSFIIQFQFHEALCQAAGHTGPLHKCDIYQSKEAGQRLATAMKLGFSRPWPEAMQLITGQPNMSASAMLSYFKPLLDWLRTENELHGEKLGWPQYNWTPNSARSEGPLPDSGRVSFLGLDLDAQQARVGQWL
Experimental: (§1) Activity of ACE and ACE2 was measured with a Spectra Max Gemini EM Florescence Reader (Molecular Devices). The enzyme removes the c-terminal dinitrophenyl moiety that quenches the inherent fluorescence of its 7-methoxycoumain group, resulting in an increase in fluorescence in the presence of enzyme activity. Fluorescence was measured with excitation and emission spectra of 328 nm and 392 nm, respectively. Reaction mixtures were prepared in 100 μl volumes and different concentrations of compound were tested against 10 μM substrate. 10 nM enzyme in 100 mM NaCl, 75 mM Iris, 0.5 μM ZnCl2, at pH 7.4. Samples were read every 15-20 seconds for at least 30 minutes immediately after the addition of fluorogenic peptide substrate at 37° C. Assays, including controls, were performed in the presence of 1% dimethyl sulfoxide (DMSO). Although higher concentrations of NaCl increase the activity of ACE2 and ACE (Vickers et al. 2002), a low concentration of salt (100 mM NaCl) was used in the assays to allow for enhancement of enzymatic activity to be detectable. That is, using 1 M NaCl which gives a maximal enhancing effect from the Cl ions might not allow the compounds to further enhance the activity of the enzyme. The lower salt concentration should give the compounds available room for activation.
Controls in the presence and absence of DMSO and without compound were carried out to evaluate the effect of DMSO on the activity of ACE and ACE2. […]
Human recombinant ACE and ACE2 were obtained from R&D systems, Minneapolis, Minn., along with their respective fluorogenic substrates (ACE, catalog ID: 929-ZN-10; ACE2, 933-ZN-10; ACE substrate, fluorogenic peptide V, Mca RPPGFSAFK(Dnp)-OH, catalog ID: ES005; ACE2 substrate, fluorogenic peptide VI, Mca-YVADAPK(Dnp)-OH, ES007). Enzymatic activity was measured with a Spectra Max Gemini EM Fluorescence Reader (Molecular Devices) (Huentelman et al., Regul. Pept. 122:61-67 (2004)). […] Samples were read every 15-30 seconds for at least 30 minutes immediately after the addition of fluorogenic peptide substrates at 37° C. […]

human recombinant ACE2 = molecular target: T2, human recombinant ACE2 (Homo sapiens, UniProt Q9BYF1); assay: ACE2 activity assay with fluorogenic peptide VI; type: biochemical
T2 construct: purchased R&D Systems, Minneapolis, Minn; 933-ZN-10
T2 sequence (Q9BYF1 18-740 limits assumed): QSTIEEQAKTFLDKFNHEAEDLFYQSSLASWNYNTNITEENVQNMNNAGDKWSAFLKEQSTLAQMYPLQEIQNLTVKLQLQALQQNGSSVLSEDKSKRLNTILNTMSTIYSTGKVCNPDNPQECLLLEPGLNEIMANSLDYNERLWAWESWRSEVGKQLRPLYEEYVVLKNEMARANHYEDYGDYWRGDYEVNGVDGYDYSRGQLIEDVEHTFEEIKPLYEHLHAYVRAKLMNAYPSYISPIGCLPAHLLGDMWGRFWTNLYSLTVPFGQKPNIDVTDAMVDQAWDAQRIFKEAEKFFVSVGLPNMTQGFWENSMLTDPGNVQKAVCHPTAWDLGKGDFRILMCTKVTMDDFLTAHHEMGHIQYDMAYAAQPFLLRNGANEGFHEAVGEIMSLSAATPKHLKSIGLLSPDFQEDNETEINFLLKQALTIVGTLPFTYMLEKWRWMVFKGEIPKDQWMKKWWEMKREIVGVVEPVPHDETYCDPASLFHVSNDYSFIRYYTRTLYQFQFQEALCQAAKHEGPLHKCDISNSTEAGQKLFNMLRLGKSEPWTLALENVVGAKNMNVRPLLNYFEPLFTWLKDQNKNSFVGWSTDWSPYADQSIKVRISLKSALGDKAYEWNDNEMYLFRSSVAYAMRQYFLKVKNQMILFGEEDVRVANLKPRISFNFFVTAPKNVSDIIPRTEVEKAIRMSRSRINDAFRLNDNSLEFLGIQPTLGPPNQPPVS
Experimental: as §1
Controls in the presence and absence of DMSO and without compound were carried out to evaluate the effect of DMSO on the activity of ACE and ACE2. Assays with no DMSO, 1% DMSO, and 2% DMSO were performed in identical conditions (i.e, pH, temperature, salt concentration, reaction mix volume and so on) to those of the experimental assays.
The experimental assays were corrected at each concentration since higher or lower concentrations of compounds affected the background signal in a concentration dependent manner.
Human recombinant ACE and ACE2 were obtained from R&D systems, Minneapolis, Minn., along with their respective fluorogenic substrates (ACE, catalog ID: 929-ZN-10; ACE2, 933-ZN-10; ACE substrate, fluorogenic peptide V, Mca RPPGFSAFK(Dnp)-OH, catalog ID: ES005; ACE2 substrate, fluorogenic peptide VI, Mca-YVADAPK(Dnp)-OH, ES007). Enzymatic activity was measured with a Spectra Max Gemini EM Fluorescence Reader (Molecular Devices) (Huentelman et al., Regul. Pept. 122:61-67 (2004)). Compounds were tested against 50 μM substrate. All assays were performed at least in triplicate in a reaction mixture containing 10 nM enzyme, 1 M NaCl, 75 mM Tris-HCl, 1% DMSO and 0.5 μM ZnCl2, at pH 7.4. Samples were read every 15-30 seconds for at least 30 minutes immediately after the addition of fluorogenic peptide substrates at 37° C. […] Enzyme activity was corrected for background.

[1] = Solubility as observed during assays and formulation; type: physicochemical
Description: Recombinant ACE and ACE2 were obtained in purified form from R&D Systems, Minneapolis, Minn. (catalog ID: 929-ZN-10 and 933-ZN-10, respectively). Substrates for ACE (fluorogenic peptide V, Mca-RPPGFSAFK(Dnp)-OH, catalog ID: ES005), and for ACE2 (fluorogenic peptide VI, Mca-YVADAPK(Dnp)-OH, catalog ID: ES007) were also obtained from R&D systems. Top scoring molecules were obtained from the National Cancer Institute (NCI) for functional testing. Dry compounds were resuspended in 100% DMSO to prepare 100 mM stock solutions, according to the amount of compound provided by the NCI and its molecular weight. Gentle heating to 60-80 C was carried out to assist their solubilization. Some compounds were further diluted to 50 mM stocks if clearly difficult to dissolve.
XNT was dissolved in saline at low pH (2-2.5) for in vivo studies. This compound was consistently prepared 24-48 hours before delivery in animals. XNT was prepared on a gram scale in six synthetic steps from 5-methoxysalicylic acid and m-chloroiodobenzene through modifications of a published procedure (Archer et al., J. Med. Chem. 26:1240-1246 (1983); Archer et al., J. Med. Chem. 31:254-260 (1988).

[2] = listed as resorcinolnaphthalein

For `O=C1OC2(c3ccc(O)cc3Oc3cc(O)ccc32)c2cccc3cccc1c23` [Compound 6, resorcinalnaphthalein], the ACE activity (Human recombinant ACE) was “do not enhance ACE activity”, the ACE activity (Human recombinant ACE; 50 or 100 μM compound) was “did not activate; also recorded: not enhanced” and the ACE activity (Human recombinant ACE; [2]) was “did not significantly affect”. The “ACE2 activity, dose response” value (human recombinant ACE2) was “did not show the same dose response”, the ACE2 activity (human recombinant ACE2; 100 μM compound) was “ACE2-specific enhancement” and the “increase of ACE2 activity” value (human recombinant ACE2; 100 μM compound, FIG. 3, 40 minute time course) was “about 2 fold”. The ACE2 activity (human recombinant ACE2; 500 μM compound) was “returned down to control level”, the ACE2 activity (human recombinant ACE2; 20, 50 and 100 μM compound) was “activated ACE2 identically; also recorded: identical curves” and the ACE2 activity (human recombinant ACE2; concentrations higher than 100 μM) was “inhibited ACE2”. For the same molecule, the “enhancement of ACE2 enzymatic activity” value (human recombinant ACE2; confirmation assay, 1% DMSO) was 2 fold, the “increase of ACE2 activity” value (human recombinant ACE2; initial functional screening) was “about 2 fold” and the “ACE2 activity, dose response” value (human recombinant ACE2; [2]) was “dose-dependent manner”. For the same molecule, the solubility [1] was “significantly more insoluble”.
